Measured values from PubChem BioAssay (NCI).
Values joined by “and” are separate entries in the source; they are usually repeats but may differ in a detail not shown here. Equal entries are not always repeated.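 Grown in 96-well plates, cells were treated for 48 hours with each compound at five concentrations. Insufficient inhibition: endpoint recorded as highest concentration tested. Here, GI50 denotes the concentration required for 50% inhibition of growth. Definition used: TGI = concentration required for complete inhibition of growth.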

Key:
Test in all cases: NCI tumour cell line growth inhibition, 48 h
NCI-H23 lung = test system: NCI-H23 lung
NCI-H226 lung = test system: NCI-H226 lung
T-47D breast = test system: T-47D breast
RXF 393 renal = test system: RXF 393 renal
EKVX NSCLC = test system: EKVX NSCLC
OVCAR-5 ovarian = test system: OVCAR-5 ovarian
HT29 colon = test system: HT29 colon
HS 578T breast = test system: HS 578T breast
COLO 205 colon = test system: COLO 205 colon
HOP-92 NSCLC = test system: HOP-92 NSCLC

Row | Compound | GI50 (NCI-H23 lung) [µM] | TGI (NCI-H23 lung) [µM] | GI50 (NCI-H226 lung) [µM] | TGI (NCI-H226 lung) [µM] | GI50 (T-47D breast) [µM] | TGI (T-47D breast) [µM] | GI50 (RXF 393 renal) [µM] | TGI (RXF 393 renal) [µM] | GI50 (EKVX NSCLC) [µM] | TGI (EKVX NSCLC) [µM] | GI50 (OVCAR-5 ovarian) [µM] | TGI (OVCAR-5 ovarian) [µM] | GI50 (HT29 colon) [µM] | TGI (HT29 colon) [µM] | GI50 (HS 578T breast) [µM] | TGI (HS 578T breast) [µM] | GI50 (COLO 205 colon) [µM] | TGI (COLO 205 colon) | TGI (HOP-92 NSCLC) [µM] | GI50 (HOP-92 NSCLC) [µM]
1 | Cc1ccc(C2NC(=S)N3C(c4ccc(C)cc4)NC(=S)N23)cc1 (centres undefined) | 5.29 | 17.9 | 6.85 | 29 | 5.24 | 19.6 | 3.27 | 14.1 | 7.93 | 25.3 | 14.7 | 28.2 | 2.58 | 10.2 | 4.74 | 25 | 6.07 | 18.5 µM |  | 
2 | CCOC(=O)C/C(N)=C(\C#N)C(=O)OCC |  | > 100 |  | > 100 |  |  |  | > 100 |  | > 100 |  | > 100 |  | > 100 |  |  |  | > 100 µM | > 100 | 
3 | Cc1nn2c(=O)n(-c3cccc(-n4nnc5c(-c6ccccc6)c(C)nn5c4=O)c3C)nnc2c1-c1ccccc1 |  | > 100 |  | > 100 |  |  |  | > 100 |  | > 100 |  | > 100 |  | > 100 |  |  |  | 42.7 µM | > 100 | 
4 | O=S1c2ccccc2N=C(c2ccc3ccccc3c2)CC1c1ccccc1F (centres undefined) |  | > 100 |  | > 100 |  |  |  | > 100 |  | > 100 |  | > 100 |  | > 100 |  |  |  | > 100 µM |  | 
5 | c1cc2ccc3cc2cc1CNCCOCCNCc1ccc2ccc(cc2c1)CNCCOCCNC3 | > 100 | > 100 | > 100 | > 100 | > 100 | > 100 | > 100 | > 100 | > 100 | > 100 | > 100 | > 100 | > 100 | > 100 | > 100 | > 100 | > 100 | > 100 µM |  | 
6 | NC(=O)c1ccccc1NC(=O)C(=O)Nc1n[nH]c(N)n1 |  | > 100 |  | > 100 |  |  |  | > 100 |  | > 100 |  | > 100 |  | > 100 |  |  |  | > 100 µM |  | 
7 | CC(N)CN.CC(N)CN.[Cl-].[O]=[Os+2]=[O] (centres undefined) | > 100 | > 100 | > 100 | > 100 |  |  | > 100 | > 100 | > 100 | > 100 | > 100 | > 100 |  |  |  |  | 70.2 | > 100 µM |  | 
8 | COc1ccc(C2c3cc4c(c(OC)c3CC3OCC(=O)C32)OCO4)cc1OC (centres undefined) | < 0.01 |  | < 0.01 | > 100 |  |  |  |  | < 0.01 | > 100 | > 100 | > 100 |  | 0.104 |  | 46.4 | < 0.01 | 0.074 µM and 0.0135 µM | > 100 | 
9 | CN(C(=O)C12C3C4C1C1C2C3C41C(=O)N(C)C(C)(C)C)C(C)(C)C (centres undefined) |  |  |  |  |  |  |  |  |  | > 50 |  |  |  | > 50 |  |  |  | > 50 µM | > 50 | 
10 | O=c1c2cc(Br)ccc2[nH]c(=S)n1-c1ccccc1 |  | > 100 |  | > 100 |  |  |  |  |  | > 100 |  | > 100 |  | > 100 |  |  |  | > 100 µM | > 100 | 
11 | O=C(O)/C(=C/c1ccccc1[N+](=O)[O-])c1cccs1 |  | > 100 |  | > 100 |  |  |  |  |  | > 100 |  | > 100 |  | > 100 |  |  |  | > 100 µM |  | 
12 | Cc1ccc2c(n1)C(=O)C(Cl)=C(Nc1ccc(N3CCN(C)CC3)cc1)C2=O | 1.79 | 3.75 | 1.77 | 3.38 |  |  | 1.67 | 3.05 | 1.73 | 3.12 | 1.82 | 3.34 | 2.19 | 4.92 | 2.47 | 7.49 | 1.77 | 3.27 µM | 3.21 | 1.68
13 | CCOc1ccc(/C=N\N2C(=O)c3ccccc3C2=O)cc1 |  | > 100 |  | > 100 |  |  |  | > 100 |  | > 100 |  | > 100 |  | > 100 |  |  |  |  | > 100 | 
14 | CC1(C)C(=O)CCC(=O)C(C)(C)C2=CC=C(O2)C(C)(C)C(=O)CCC(=O)C(C)(C)C2=CC=C1O2 |  | > 100 |  | > 100 |  |  |  | > 100 |  | > 100 |  | > 100 |  | > 100 |  |  |  | > 100 µM | > 100 | 
15 | CC(=O)NC1CCCN(O)C(=O)/C=C(/C)CCOC(=O)C(NC(C)=O)CCCN(O)C(=O)/C=C(/C)CCOC(=O)C(NC(C)=O)CCCN(O)C(=O)/C=C(/C)CCOC1=O.[Fe] (centres undefined) | > 100 | > 100 |  |  | > 100 | > 100 |  |  | > 100 | > 100 | > 100 | > 100 | > 100 | > 100 | > 100 | > 100 | > 100 | > 100 µM | > 100 | > 100
16 | CC(C)(C)C1CCC(CI)(N=[N+]=[N-])CC1 (centres undefined) |  | > 100 |  | > 100 |  |  |  | > 100 |  | > 100 |  | > 100 |  | > 100 |  |  |  | > 100 µM | > 100 | 
